Assay results reported in patent publication US20080260650A1, “Methods of Detection and Therapy of Inflamed Tissues Using Immune Modulation” (THE GENERAL HOSPITAL Corporation, priority 2004, published 2008).

Test system: infected lesion (Candida albicans, left thigh)
Type: in vivo, mice (C57/BL)
Conditions: Candida-inoculated mice, day 8; GMCSF intramuscularly 3 days before PET; FDG 2 mCi/Kg via tail vein, PET 3 hours later; p<0.05 vs pre-GMCSF
Procedure: Candida albicans was suspended in saline to achieve a concentration of 2.5×10^9 yeast cells/ml. Three mice (C57/BL, Jackson Laboratories, Bar Harbor, Me.) were injected intramuscularly in the left thigh with 5×10^8 Candida albicans cells suspended in 0.2 ml of saline. The right thigh was injected with 0.2 ml of saline as a control.
Imaging of the animals was performed on days 5 and 8 after Candida inoculation. […] GMCSF was administered intramuscularly immediately after the first PET images were obtained (3 days prior to the second PET imaging).

With “GMCSF: granulocyte-macrophage colony stimulating factor, immune modulator; FDA approved under the tradename Leukine” the “FDG uptake within the infected lesion, post-GMCSF” value was 8150 nCi/cc.
